The source made the active and inactive calls.
What was measured:
[1] = biological target: T1, Heat shock factor protein 1 (Mus musculus, UniProt P38532); assay: HSF1 potentiators in luciferase reporter cells, confirmation, cell-based, NIH3T3, luminescence, dose retest (AID 435004); format: functional;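 further: stress induced by proteasome inhibitor MG132 added 30 min after compound; luciferase reporter driven by HSF1 response element in NIH3T3 cells; actives raise luminescence as potentiators of the MG132 stress response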
T1 sequence (P38532 whole entry): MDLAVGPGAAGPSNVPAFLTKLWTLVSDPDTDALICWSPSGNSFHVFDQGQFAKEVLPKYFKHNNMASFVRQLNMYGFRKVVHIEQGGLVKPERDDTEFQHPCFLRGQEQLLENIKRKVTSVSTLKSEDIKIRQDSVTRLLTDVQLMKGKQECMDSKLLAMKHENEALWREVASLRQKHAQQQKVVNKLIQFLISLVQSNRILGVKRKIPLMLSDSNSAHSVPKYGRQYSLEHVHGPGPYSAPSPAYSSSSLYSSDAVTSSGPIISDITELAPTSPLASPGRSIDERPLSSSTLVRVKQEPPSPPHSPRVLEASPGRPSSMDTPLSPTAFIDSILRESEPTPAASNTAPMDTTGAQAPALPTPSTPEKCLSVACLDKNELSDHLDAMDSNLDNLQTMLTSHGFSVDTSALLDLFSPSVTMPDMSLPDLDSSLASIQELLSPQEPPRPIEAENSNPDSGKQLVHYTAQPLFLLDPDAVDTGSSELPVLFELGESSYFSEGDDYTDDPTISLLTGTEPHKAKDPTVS

Cytochrome P450 2D6 = Cytochrome P450 2D6 (Homo sapiens, UniProt P10635);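 further: CYP2D6 member of a cytochrome P450 panel assay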
Cytochrome P450 2C19 = Cytochrome P450 2C19 (Homo sapiens, UniProt P33261); assay: Cytochrome panel assay with activity outcomes. Panel member name: p450-cyp2c19 Compounds with AC50 equal or less than 10 uM are considered active; format: functional; details: read-out: AC50
Cytochrome P450 2C9 = Cytochrome P450 2C9 (Homo sapiens, UniProt P11712)
[2] = biological target: T1, Heat shock factor protein 1; assay: inhibition of MG132-induced HSE-luciferase signal, confirmation, cell-based, NIH3T3, luminescence, dose retest (AID 2382); format: functional;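 further: NIH3T3 fibroblasts with HSF1-driven luciferase reporter stressed by proteasome inhibitor MG132; luminescence from HSF1-driven luciferase expression after 8 hours of MG132 stress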
[3] = biological target: T2, Rac GTPase-activating protein 1 (Homo sapiens, UniProt Q9H0H5); assay: MgcRacGAP GTPase-activating activity inhibitors, confirmation, biochemical, ADP Hunter fluorescence, primary and confirmatory (AID 624330); format: functional
T2 sequence (Q9H0H5 whole entry): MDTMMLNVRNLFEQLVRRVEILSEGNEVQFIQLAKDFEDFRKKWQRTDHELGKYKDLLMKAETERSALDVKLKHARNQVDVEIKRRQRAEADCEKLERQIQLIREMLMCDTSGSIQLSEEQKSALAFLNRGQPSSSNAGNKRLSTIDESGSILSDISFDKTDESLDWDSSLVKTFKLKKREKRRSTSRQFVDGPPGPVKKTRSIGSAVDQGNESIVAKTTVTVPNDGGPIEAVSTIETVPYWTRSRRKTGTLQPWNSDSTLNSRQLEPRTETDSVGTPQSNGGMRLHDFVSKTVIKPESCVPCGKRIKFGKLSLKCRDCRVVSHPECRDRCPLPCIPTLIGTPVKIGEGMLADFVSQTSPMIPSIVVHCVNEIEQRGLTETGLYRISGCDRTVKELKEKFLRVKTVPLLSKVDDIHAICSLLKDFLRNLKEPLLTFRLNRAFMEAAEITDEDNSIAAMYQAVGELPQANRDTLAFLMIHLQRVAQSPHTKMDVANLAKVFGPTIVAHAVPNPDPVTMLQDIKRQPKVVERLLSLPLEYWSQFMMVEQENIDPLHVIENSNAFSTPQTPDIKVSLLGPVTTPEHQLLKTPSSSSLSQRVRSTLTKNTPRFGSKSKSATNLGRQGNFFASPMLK

[4] = inhibitors of intracellular T. cruzi replication, confirmation, NIH3T3 host cells, beta-gal luminescence (AID 2044); format: functional, cell-based;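 further: intracellular parasites grown in NIH/3T3 mouse fibroblasts as host cells; luminescent beta-galactosidase reporter signal from transgenic T. cruzi replicating inside host cells; inhibitors lower the luminescence signal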
[5] = cytotoxicity toward NIH3T3 fibroblasts, dose response, counter-screen, cell-based, ATP luminescence, mouse fibroblasts (AID 2010); format: functional;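 further: cells exposed to compound for about 90 hours before reading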
[6] = NIH-3T3 fibroblast cytotoxicity, dose response, cytotoxicity control, cell-based, fluorescence, Alamar Blue, secondary assay (AID 2327); format: functional;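 further: NIH-3T3 mouse fibroblasts cultured with fluconazole at 8 µg/mL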
Cytochrome P450 3A4 = Cytochrome P450 3A4 (Homo sapiens, UniProt P08684);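 further: CYP3A4 tested as one member of a cytochrome P450 panel screen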
[7] = Luminescence Cell-Based Dose Retest to Confirm Inhibitors of Cancer Stem Cells. [Related pubchem assays (depositor defined):AID2717, AID2721]; format: functional; details: Homo sapiens
INS1 = assay: beta cell apoptosis inhibitors, cytokine rescue, dose response, luminescence, retest (AID 449756); format: functional, cell-based; details: Rattus norvegicus;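 further: cell death triggered by IL-1 beta plus TNF-alpha plus IFN-gamma mixture; protective hits raise ATP signal compared with cytokine alone wells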

Sequence of Cytochrome P450 3A4 (P08684 whole entry): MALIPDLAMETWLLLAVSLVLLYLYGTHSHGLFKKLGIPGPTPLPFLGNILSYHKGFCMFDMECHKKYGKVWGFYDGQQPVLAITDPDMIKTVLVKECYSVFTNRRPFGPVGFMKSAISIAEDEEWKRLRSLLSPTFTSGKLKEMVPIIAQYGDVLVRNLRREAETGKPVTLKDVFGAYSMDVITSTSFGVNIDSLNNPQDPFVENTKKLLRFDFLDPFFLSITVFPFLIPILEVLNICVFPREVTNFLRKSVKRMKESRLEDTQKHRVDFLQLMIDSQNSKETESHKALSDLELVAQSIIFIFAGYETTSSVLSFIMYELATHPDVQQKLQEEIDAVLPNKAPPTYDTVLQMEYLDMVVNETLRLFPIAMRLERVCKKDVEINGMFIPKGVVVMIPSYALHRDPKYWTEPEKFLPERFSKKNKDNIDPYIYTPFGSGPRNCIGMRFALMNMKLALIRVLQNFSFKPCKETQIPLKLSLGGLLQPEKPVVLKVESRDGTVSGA
Sequence of Cytochrome P450 2C9 (P11712 whole entry): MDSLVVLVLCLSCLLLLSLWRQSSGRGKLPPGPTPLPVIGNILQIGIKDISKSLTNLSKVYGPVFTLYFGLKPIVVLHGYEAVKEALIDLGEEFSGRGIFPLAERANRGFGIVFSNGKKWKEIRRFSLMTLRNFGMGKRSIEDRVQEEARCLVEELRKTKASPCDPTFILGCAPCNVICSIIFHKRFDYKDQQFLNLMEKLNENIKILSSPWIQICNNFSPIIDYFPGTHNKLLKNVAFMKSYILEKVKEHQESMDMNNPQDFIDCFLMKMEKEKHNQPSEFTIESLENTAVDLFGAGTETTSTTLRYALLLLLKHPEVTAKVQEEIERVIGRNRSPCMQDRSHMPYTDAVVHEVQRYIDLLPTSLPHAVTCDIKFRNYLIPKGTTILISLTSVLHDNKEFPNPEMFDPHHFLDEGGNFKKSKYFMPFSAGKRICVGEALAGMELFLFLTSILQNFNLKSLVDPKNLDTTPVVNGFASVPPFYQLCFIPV
Sequence of Cytochrome P450 2D6 (P10635 whole entry): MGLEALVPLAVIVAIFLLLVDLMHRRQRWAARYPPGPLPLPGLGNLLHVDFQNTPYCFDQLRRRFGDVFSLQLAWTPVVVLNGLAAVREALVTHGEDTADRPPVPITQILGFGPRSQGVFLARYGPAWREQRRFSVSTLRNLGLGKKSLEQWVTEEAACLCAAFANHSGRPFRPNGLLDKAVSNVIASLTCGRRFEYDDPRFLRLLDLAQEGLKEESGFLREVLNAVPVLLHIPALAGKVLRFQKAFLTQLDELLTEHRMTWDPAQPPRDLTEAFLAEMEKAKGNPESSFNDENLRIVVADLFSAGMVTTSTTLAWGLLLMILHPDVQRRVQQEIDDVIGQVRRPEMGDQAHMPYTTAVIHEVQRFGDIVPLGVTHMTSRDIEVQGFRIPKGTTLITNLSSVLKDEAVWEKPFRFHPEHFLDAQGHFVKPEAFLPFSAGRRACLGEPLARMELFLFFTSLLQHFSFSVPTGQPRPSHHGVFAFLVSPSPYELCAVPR
Sequence of Cytochrome P450 2C19 (P33261 whole entry): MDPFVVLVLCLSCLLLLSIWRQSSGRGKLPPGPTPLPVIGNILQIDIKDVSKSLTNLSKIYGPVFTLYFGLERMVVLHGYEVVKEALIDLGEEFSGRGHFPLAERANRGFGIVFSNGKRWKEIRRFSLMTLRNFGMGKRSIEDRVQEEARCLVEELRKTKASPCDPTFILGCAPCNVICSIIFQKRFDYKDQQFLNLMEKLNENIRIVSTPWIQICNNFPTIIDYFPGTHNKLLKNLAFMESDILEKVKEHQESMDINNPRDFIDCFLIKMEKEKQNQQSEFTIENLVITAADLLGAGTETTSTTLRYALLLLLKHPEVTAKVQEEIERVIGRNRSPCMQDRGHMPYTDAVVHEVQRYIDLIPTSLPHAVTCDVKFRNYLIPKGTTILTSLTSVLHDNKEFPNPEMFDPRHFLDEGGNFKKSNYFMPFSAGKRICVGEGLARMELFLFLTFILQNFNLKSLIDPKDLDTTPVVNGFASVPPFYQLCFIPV

Cc1cccc(-c2cc3c(nn2)-c2ccccc2C3=O)c1
EC50 [1]: 0.897 µM (active)

COc1ncc2nc(CCc3ccccc3)c(=O)n(C)c2n1
AC50 (Cytochrome P450 2D6): 20 µM (inconclusive)
AC50 (Cytochrome P450 2C19): 25.1 µM (inconclusive)

CCCc1cc2c(n1Cc1cc(F)cc(F)c1)C(C)C1CN(C(=O)c3ccccc3)C(C)(C(=O)OC)C21 (stereo unspecified)
AC50 (Cytochrome P450 2D6): 25.1 µM (inconclusive)
AC50 (Cytochrome P450 2C19): 39.8 µM (inconclusive)

Cc1nc2sccc2c(=O)n1-c1cccc(Cl)c1
AC50 (Cytochrome P450 2D6): 12.6 µM (inconclusive)
AC50 (Cytochrome P450 2C9): 20 µM (inconclusive)

CC1(C)CC(=O)C2=C(C1)N(c1ccc(F)cc1)C(=O)CC2c1ccccc1 (stereo unspecified)
EC50 [2]: > 195 µM (not active)

CCOC(=O)C1C(=O)NC(C)C1c1ccccc1 (stereo unspecified)
AC50 (Cytochrome P450 2D6): 0.0501 µM (inconclusive)
AC50 (Cytochrome P450 2C19): 31.6 µM (inconclusive)

CC(=O)N1N=C(c2ccccc2)CC1c1ccccc1[N+](=O)[O-] (stereo unspecified)
EC50 [1]: > 260 µM (inactive)

Cc1ccc[n+](CC(=O)Nc2ccc([N+](=O)[O-])cc2Cl)c1
EC50 [1]: > 260 µM (inactive)

COc1cc(OC)c(CN2CCCN(C)CC2)cc1Br
IC50 [3]: 107 µM (active)

Cc1ccc(NC(=O)CNCCCN2CCOCC2)cc1S(=O)(=O)N1CCCCC1
IC50 [3]: 76.5 µM (active)

COc1nc(Nc2ccc(O)cc2)nc(OC(C(F)(F)F)C(F)(F)F)n1
IC50 [3]: 35.1 µM (active)

Cn1cc(/C=C(\C#N)C(=O)Nc2cccc([N+](=O)[O-])c2)c2ccccc21
EC50 [2]: 4.14 µM (active)

CCSc1nnc(NC(=O)c2cccnc2Cl)s1
EC50 [1]: > 260 µM (inactive)

CCN(c1ccccc1)S(=O)(=O)c1cc(NC(=O)Nc2ccccc2C#N)ccc1Cl
EC50 [1]: > 260 µM (inactive)

S=C(NCCSCc1c(Cl)cccc1Cl)Nc1ccccc1
EC50 [4]: 2.94 µM (active)
EC50 [5]: > 60 µM (not active)
EC50 [6]: > 160 µM (inactive)
AC50 (Cytochrome P450 2C9): 10 µM (inconclusive)

COc1cc(/C=C/C(=O)O)cc(S(=O)(=O)NCCCO)c1OC
AC50 (Cytochrome P450 2C9): 10 µM (inconclusive)

CCOc1ccc(NC(=O)N(C2CCCCC2)C(C)c2ccncc2)cc1 (stereo unspecified)
AC50 (Cytochrome P450 2D6): 17.8 µM (inconclusive)

C=C1SC(Nc2c(C)cc(C)cc2C)=NC12CCCCC2
EC50 [4]: 0.561 µM (active)
EC50 [5]: > 60 µM (not active)
EC50 [2]: > 195 µM (not active)

Cc1cc(=O)oc(C)c1C(=O)NCc1cccnc1
AC50 (Cytochrome P450 3A4): 25.1 µM (inconclusive)
AC50 (Cytochrome P450 2C9): 3.16 µM (inconclusive)

CCCn1nnnc1-c1cccc(Cl)c1
AC50 (Cytochrome P450 2C9): 1.26 µM (inconclusive)

Cc1ccc(C(=O)N2N=C(c3ccc(Br)cc3)CC2c2ccccc2O)cc1 (stereo unspecified)
EC50 [4]: 2.15 µM (active)
EC50 [5]: 13.6 µM (active)
AC50 [7]: 3.63 µM (active)
AC50 (INS1): 7.42 µM (active)

Cc1ccc(C(C)(O)CS(=O)(=O)Cc2ccccc2Cl)cc1 (stereo unspecified)
EC50 [1]: > 260 µM (inactive)

COc1cc(N)ccc1NC(=O)c1cccs1
IC50 [3]: 106 µM (active)

COc1ccc(NC(=O)c2cc(C)n(Cc3cccs3)c2C)cc1
EC50 [1]: 106 µM (inconclusive)

CC(=O)COc1ccccc1OC(=O)c1ccco1
EC50 [2]: > 195 µM (not active)

COc1ccc2nc(NC(=O)CN3CCOCC3)sc2c1
EC50 [2]: > 195 µM (not active)

CN(Cc1ccccc1)C(=O)C1CCCN(Cc2ccc(Cl)cc2)C1 (stereo unspecified)
IC50 [3]: 161 µM (active)

NC(=O)CC(NC(=O)Cc1ccc(Br)cc1)c1ccc(N2CCC(Cc3ccccc3)CC2)c([N+](=O)[O-])c1 (stereo unspecified)
AC50 [7]: 12.3 µM (active)

COc1cccc2cc(C(=O)OC3CCN(C)CC3)c(=O)oc12
EC50 [2]: > 195 µM (not active)

C=CCn1c(SCC)nc2sc3c(c2c1=O)CCc1ccccc1-3
AC50 (Cytochrome P450 2D6): 11.2 µM (inconclusive)

CNc1ncc(C(=O)c2ccccc2)s1
AC50 (Cytochrome P450 3A4): 28.2 µM (inconclusive)
AC50 (Cytochrome P450 2C9): 7.94 µM (inconclusive)
AC50 (Cytochrome P450 2C19): 2.24 µM (inconclusive)

COc1ccc(CNc2ncc(-c3ccc(F)cc3)n2C)cc1OC
IC50 [3]: 56.8 µM (active)

Cc1cc(O)c2n(Cc3ccccc3Cl)nc[n+]2n1
EC50 [1]: > 260 µM (inactive)

C=CCNC(=S)N1CCN(Cc2ccc3c(c2)OCO3)CC1
IC50 [3]: 158 µM (active)

CS(=O)(=O)N(CC(=O)NCc1ccccc1)C1CCCCC1
EC50 [2]: > 195 µM (not active)

O=C1CCC(=O)N1CNc1ccccn1
EC50 [2]: > 195 µM (not active)

CCOC(=O)c1c(NC(=O)CNC2CCCc3ccccc32)sc(C(N)=O)c1C (stereo unspecified)
EC50 [2]: 25 µM (active)

Cc1noc(C)c1CS(=O)(=O)c1ccc(Br)cc1
AC50 (Cytochrome P450 2C9): 31.6 µM (inconclusive)

O=C(COc1ccccc1)Nc1cc(C(F)(F)F)ccc1N1CCCC1
AC50 (Cytochrome P450 2D6): 17.8 µM (inconclusive)

CCC(C)c1ccc(Nc2ncccc2C#N)cc1 (stereo unspecified)
AC50 (Cytochrome P450 2D6): 28.2 µM (inconclusive)

O=C(NCc1ccc2c(c1)OCO2)c1cc2c(s1)CS(=O)(=O)C2
EC50 [2]: > 195 µM (not active)

CCCCOc1ccc(N2CC(C(=O)NCCc3ccc(OC)c(OC)c3)CC2=O)cc1 (stereo unspecified)
EC50 [2]: > 195 µM (not active)

CCNC(=O)NC(=O)CSc1nc2ccccc2n1CC(C)C
AC50 (Cytochrome P450 2D6): 14.1 µM (inconclusive)
AC50 (Cytochrome P450 2C9): 20 µM (inconclusive)

c1csc(CN2CCCC3(CCNCC3)C2)n1
AC50 (Cytochrome P450 2C9): 31.6 µM (inconclusive)

CCC1C=CC=CC[C@H](C)[C@@H](O)[C@](C)(O)C(=O)[C@@H](C)[C@H](O)[C@@H](C)C(=O)[C@H](C)[C@@H](O)[C@H](C)C=CC(=O)OC2[C@@H](C)C(CC1)OC1(CC[C@@H](C)C(C[C@H](C)O)O1)[C@@H]2C (stereo partly specified)
AC50 [7]: 2.9 µM (active)

CCc1cccc(NC(=O)COC(=O)/C=C/c2cccs2)c1
EC50 [2]: > 195 µM (not active)

Cc1nc2c(n1C1CCCCC1)C(=O)c1ccccc1C2=O
AC50 (Cytochrome P450 2D6): 22.4 µM (inconclusive)

NCCc1c[nH]c2ccc(OC(=O)C(=O)O)cc12
AC50 (Cytochrome P450 2C9): 3.98 µM (inconclusive)
AC50 (Cytochrome P450 2C19): 1.58 µM (inconclusive)

c1ccc2c(CC3NCCN3)cccc2c1
AC50 (Cytochrome P450 2D6): 3.98 µM (inconclusive)

COc1cc2c(cc1OC)C(C(=O)Nc1cccc(C)n1)C(c1cccnc1)N(C)C2=O (stereo unspecified)
AC50 (Cytochrome P450 3A4): 15.8 µM (inconclusive)
AC50 (Cytochrome P450 2C9): 0.00562 µM (inconclusive)

Oc1ccc2ccccc2c1/C=N\Cc1c(O)ccc2ccccc12
AC50 (Cytochrome P450 2D6): 3.98 µM (inconclusive)

CCCCN=C(NNc1ccc(Br)cc1)C(=O)OCC
AC50 [7]: 2.89 µM (active)

COCCNC(=O)c1ccc2c(c1)ncn2-c1ccc(F)c(F)c1
AC50 (Cytochrome P450 2C9): 17.8 µM (inconclusive)
AC50 (Cytochrome P450 2C19): 28.2 µM (inconclusive)

CCc1nc(SCC(=O)c2ccc(Cl)s2)c2oc3ccccc3c2n1
EC50 [1]: 43.5 µM (active)

CCOC(=O)c1sc(C)c(C(=O)NCC(C)(C)CN(C)C)c1N
AC50 (Cytochrome P450 2C9): 39.8 µM (inconclusive)

Cc1nn(C(CC(=O)O)C(=O)O)c(C)c1Br (stereo unspecified)
EC50 [1]: > 260 µM (inactive)

COc1ncc2nc(CCc3ccccc3)c(=O)n(-c3ccccc3)c2n1
AC50 (Cytochrome P450 2C9): 25.1 µM (inconclusive)

COC(=O)[C@@H]1C[C@H]1[C@@H](NC(=O)c1cc(C)on1)c1ccccc1
AC50 (Cytochrome P450 3A4): 31.6 µM (inconclusive)
AC50 (Cytochrome P450 2C9): 39.8 µM (inconclusive)

CNC(C)C(=O)NC(C(=O)N1CCCC1C(=O)NNc1ccccc1)C(C)C (stereo unspecified)
AC50 [7]: 2.17 µM (active)

C/C(=N\NC(=O)c1nnn(-c2nonc2N)c1CN1CCc2ccccc21)c1ccccc1O
AC50 [7]: 2.72 µM (active)
AC50 (INS1): 1.98 µM (active)

CSc1ncnc2c1ncn2CCCNc1ccc(C)c(C)c1
IC50 [3]: 207 µM (active)

Oc1ccccc1/C=N/C1=NN(c2cccc(C(F)(F)F)c2)CC1
IC50 [3]: 16.9 µM (active)

CCn1c(C)c(/C=N/Nc2nc3ccccc3s2)c2ccccc21
EC50 [4]: 2.5 µM (active)
EC50 [5]: > 60 µM (not active)
AC50 (Cytochrome P450 2D6): 14.1 µM (inconclusive)
